The subject of assay [1] is spike with N969K mutation. Type of assay: cell-based, SARS‐CoV‐2.
The subject of assay [2] is S2 subunit with N969K mutation. Type of assay: binding, SARS‐CoV‐2.
Assay [3] deals with SARS‐CoV‐2 spike S2 subunit. The class given is cell-based.
The test system of assay [4] is SARS‐CoV‐2 spike pseudovirus. The class given is cell-based.
The subject of assay [5] is spike with N764K mutation. Type of assay: cell-based, SARS‐CoV‐2.
Assay [6] deals with SARS‐CoV‐2^N764K spike pseudovirus. The class given is cell-based.
The subject of assay [7] is spike with N764K mutation. Type of assay: cell-based, SARS‐CoV‐2. This is another data set of the same source.
For assay [8], the system named is SARS‐CoV‐2 spike. Type of assay: cell-based.
The subject of assay [9] is spike with D796Y mutation. Type of assay: cell-based, SARS‐CoV‐2.
Assay [10] relates to S2 subunit with D796Y mutation. Type of assay: binding, SARS‐CoV‐2.

This note sets out measurements from publication PMC12686126, “LL‐37 Inhibits TMPRSS2‐Mediated S2' Site Cleavage and SARS‐CoV‐2 Infection but Not Omicron Variants” (Cell Proliferation, 2025).

As to “LLGDFFRKSKEKIGKEFKRIVQRIKDFLRNLVPRTES [LL‐37]”, the “cell–cell fusion activity after LL‐37 pretreatment” value is listed as “significantly lower cell–cell fusion activity” in [1], “not the spike‐expressing cells with N764K mutation” in assay [5], “significantly lower cell–cell fusion activity” in assay [8] and “significantly lower cell–cell fusion activity” in assay [9]. In addition, the “binding of S2 subunit to immobilised LL‐37” value in assay [2] and in assay [10] was “no difference or even enhanced binding” throughout. Moreover, in assay [3], the “effect on polybasic cleavage site (S1/S2 boundary)” value is listed as “excluded the effect of LL‐37 on the polybasic cleavage site”. The “inhibition of RLU only caused by overexpression of TMPRSS2” value in assay [4] was “about 70%”. The “inhibition of pseudovirus entry into 293T‐A2T2 cells” value in assay [4] was determined as 52%. Moreover, the “reduction of RLU induced by SARS‐CoV‐2^N764K” value in assay [6] was “did not significantly reduce”. The “generation of S2' fragment” value in [7] is “did not significantly reduce”.
